Read-outs that look alike come from different tables or passages of the source.
Test system: adults with previously untreated higher-risk MDS
Settings: with azacitidine
Method: A multicenter, non-randomized Phase 1b study in adults with previously untreated higher-risk MDS, defined as IPSS risk categories of Int-2 or High (IPSS overall score ≥1.5) was initiated. The original protocol randomized patients into 1 of 3 treatment groups: venetoclax 800 mg + azacitidine, venetoclax 400 mg + azacitidine, and azacitidine monotherapy. Under the original protocol, venetoclax was administered on Days 1 through 28 of each 28-day-cycle and dosing was initiated according to a ramp-up dosing schedule in Cycle 1.
Subjects 18 years or older diagnosed with treatment-naïve IPSS intermediate-2 or high-risk myelodysplastic syndromes with ECOG ≤2 were enrolled. For this study, inclusion criteria included the following: • 1. Subject must be ≥18 years of age. • 2. Subject must have documented diagnosis of previously untreated de novo MDS with: • a. International Prognostic Scoring System (IPSS) risk categories Intermediate-2 or High (i.e., minimum IPSS score of 1.5) OR Revised IPSS (IPSS-R) categories Intermediate, High or Very High (score of >3); and • b. Presence of <20% bone marrow blasts per bone marrow biopsy/aspirate. • 3. Subject must have an Eastern Cooperative Oncology Group (ECOG) performance score of ≤2.
Azacitidine 75 mg/m^2 (intravenous or subcutaneous daily) was administered for 7 days and venetoclax was administered at 400 mg for 14 days in each 28 day cycle. In both cohorts, dose modification during Cycle 1 was not recommended. Dose modifications in subsequent cycles were prescribed for adverse events. […] In subsequent cycles, venetoclax duration could be shortened to 9 days of each cycle. In Safety Expansion Cohort 2 (SE2), dose modification guidelines recommended stepwise reductions, first in azacitidine dose (first to 50 mg/m^2, then 36 mg/m^2) and subsequently in venetoclax duration to 7 days of each cycle (venetoclax 400 mg) as shown in Table 4. The impact of each dose modification strategy on safety and efficacy in SE1 versus SE2 was compared. Worsening of treatment-emergent adverse events grades from baseline was analyzed by cycle. Responses were evaluated using IWG 2006 criteria. Analyses included all subject who received ≥1 dose of study drug.
After a previous interruption of treatment, delay starting the next cycle, onset of adverse events associated with hematological toxicity, significant reduction of neutrophils, or significant reduction of platelets, a treatment dose reduction may be indicated. […] Venetoclax and azacitidine were resumed on the same day after any delays or interruptions in treatment.

## CC1(C)CCC(CN2CCN(c3ccc(C(=O)NS(=O)(=O)c4ccc(NCC5CCOCC5)c([N+](=O)[O-])c4)c(Oc4cnc5[nH]ccc5c4)c3)CC2)=C(c2ccc(Cl)cc2)C1 [Venetoclax, 4-(4-{[2-(4-chlorophenyl)-4,4-dimethylcyclohex-1-en-1-yl]methyl}piperazin-1-yl)-N-({3nitro-4-[(tetrahydro-2H-pyran-4-ylmethyl)amino]phenyl}sulfonyl)-2-(1H-pyrrolo[2,3-b]pyridin5-yloxy)benzamide]
Cycle 2, SE1, n = 22
  Venetoclax dose delay by end of each cycle: 14 (63) n (%)
  Venetoclax dose delay by end of each cycle, Median # days (range): 7.5 (1-21) days
Cycle 2, SE2, n = 21
  Venetoclax dose delay by end of each cycle: 13 (62) n (%)
  Venetoclax dose delay by end of each cycle, Median # days (range): 8 (5-21) days
Cycle 3, SE1, n = 22
  Venetoclax dose delay by end of each cycle: 12 (55) n (%)
  Venetoclax dose delay by end of each cycle, Median # days (range): 14 (3-28) days
Cycle 3, SE2, n = 21
  Venetoclax dose delay by end of each cycle: 10 (48) n (%)
  Venetoclax dose delay by end of each cycle, Median # days (range): 8.5 (1-48) days
Cycle 4, SE1, n = 22
  Venetoclax dose delay by end of each cycle: 8 (36) n (%)
  Venetoclax dose delay by end of each cycle, Median # days (range): 17 (1-54) days
Cycle 4, SE2, n = 21
  Venetoclax dose delay by end of each cycle: 6 (28) n (%)
  Venetoclax dose delay by end of each cycle, Median # days (range): 9 (6-43) days
Cycle 5, SE1, n = 22
  Venetoclax dose delay by end of each cycle: 7 (32) n (%)
  Venetoclax dose delay by end of each cycle, Median # days (range): 14 (3-28) days
Cycle 5, SE2, n = 21
  Venetoclax dose delay by end of each cycle: 9 (43) n (%)
  Venetoclax dose delay by end of each cycle, Median # days (range): 14 (1-97) days
Cycle 6, SE1, n = 22
  Venetoclax dose delay by end of each cycle: 7 (32) n (%)
  Venetoclax dose delay by end of each cycle, Median # days (range): 7 (1-21) days
Cycle 6, SE2, n = 21
  Venetoclax dose delay by end of each cycle: 5 (24) n (%)
  Venetoclax dose delay by end of each cycle, Median # days (range): 14 (6-91) days
SE1, n = 22
  # of reductions in Venetoclax duration (due to hematologic toxicity): 3 (14)
  Patients with ≥1 Ven dose amount reduction: 10 (45) n (%)
  Venetoclax: Median days to duration reduction: 52 days
SE2, n = 21
  # of reductions in Venetoclax duration (due to hematologic toxicity): 0
  Patients with ≥1 Ven dose amount reduction: 10 (48) n (%)

From patent US20220370481A1, “VENETOCLAX DOSING REGIMENS FOR USE IN TREATING MYELODYSPLASTIC SYNDROMES IN COMBINATION WITH A CYP3A INHIBITOR AND AZACITIDINE” (priority 2021, published 2022)
